This passage reports EC50 and IC50 results from patent US20040116336A1, “Peptide derivatives” (priority 2002, published 2004).

Non-standard residues stand in square brackets, D forms with d. Residues, ends and D or L forms follow the SMILES beside them. *: point of attachment. Phe(4-Cl) = N[C@@H](Cc1ccc(Cl)cc1)C(=O)O; 2Nal = N[C@@H](Cc1ccc2ccccc2c1)C(=O)O; Cha = N[C@@H](CC1CCCCC1)C(=O)O; pGlu = O=C1CC[C@@H](C(=O)O)N1; Morpholide = C1CN(*)CCO1; NMeA = CN[C@@H](C)C(=O)O

Test [1] concerns the target T1, APJ (Homo sapiens, UniProt P35414).
T1 construct: expressed in transfected cells; host or cells: CHO (CHO-A10; clone 6 for the cAMP assay)
T1 sequence (P35414 1-380): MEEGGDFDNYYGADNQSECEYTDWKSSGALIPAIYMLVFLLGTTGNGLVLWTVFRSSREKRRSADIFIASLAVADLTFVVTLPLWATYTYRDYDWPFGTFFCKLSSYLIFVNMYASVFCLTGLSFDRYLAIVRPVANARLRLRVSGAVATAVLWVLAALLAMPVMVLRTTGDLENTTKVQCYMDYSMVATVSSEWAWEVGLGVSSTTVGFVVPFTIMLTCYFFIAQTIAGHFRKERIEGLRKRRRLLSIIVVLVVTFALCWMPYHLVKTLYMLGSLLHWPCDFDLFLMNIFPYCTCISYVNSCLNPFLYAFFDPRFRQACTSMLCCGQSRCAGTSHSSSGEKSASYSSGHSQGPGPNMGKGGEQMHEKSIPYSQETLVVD
Briefly: Inhibitory activity on forskolin-stimulated cAMP production in CHO-A10 clone 6 cells. The following applies: read-out: EC50. It counts as cell-based. The protocol:
Measurement of an Inhibitory Activity on Forskolin-Stimulated cAMP Production
Hanks' balanced salt solution (HBSS) containing 0.2 mM 3-isobutyl-1-methylxanthine (IBMX) and 0.05% bovine serum albumin was prepared as an assay buffer, and each well was washed twice with 500 μl assay buffer and pre-incubated at 37° C. for 30 minutes. Further, each well was washed once with 500 μl assay buffer, and a sample dissolved in the assay buffer containing 1 μM forskolin was added at a volume of 500 μl/well and incubated at 37° C. for 30 minutes. Wells incubated with the assay buffer not containing forskolin were prepared in the same manner in order to determine the basal level of cellular cAMP production, while wells incubated with the assay buffer containing forskolin were also prepared in order to determine the maximum level of cAMP production stimulated with forskolin. After incubation was finished, each well was washed once with 500 μl assay buffer, and 500 μl lysis buffer 1B attached to a cAMP EIA system from Amersham was added to each well, to extract cAMP. According to the protocol of the kit, 100 μl of each extract was used to determine the level of cAMP. For the inhibitory activity of the sample on cAMP production, the difference (inhibited cAMP production) between the maximum level and the level of cAMP in the sample-containing wells was determined, and the inhibitory activity was expressed as percentage relative to the increased level of cAMP production stimulated with forskolin (that is, the difference between the maximum level and basal level), and from this dose-reaction curve, the EC50 was determined.

Test [2] deals with T1, APJ. Kind of test: Receptor binding assay-2 (compound in Reference Example 2 used). The following applies: compound in Reference Example 2 used as ligand; read-out: IC50. The protocol: This product was mixed with an equal volume of an assay buffer (50 mM Tris-HCl/pH 7.5, 5 mM EDTA, 0.5 mM PMSF, 20 μg/ml leupeptin, 0.1 μg/ml pepstatin A, 4 μg/ml E-64 (Peptide Research Laboratory, Co.), 0.1% bovine serum albumin) and stored at −30° C. before use.
CHO-A10 cells were cultured, recovered with PBS containing 5 mM EDTA from a culture vessel, and suspended in the above-mentioned assay buffer not containing bovine serum albumin. The cells were homogenized 3 times at 12,000 rpm for 15 seconds by a Polytron homogenizer (manufactured by Kinematica Inc.) and then centrifuged (1000×g, 4° C., 10 minutes), and the supernatant was recovered. The precipitates were subjected again to the same procedure as above, and the respective supernatants were combined and centrifuged at 100,000×g, 4° C. for 1 hour, to recover precipitates (membrane fraction). The membrane fraction was suspended again in a small amount of the buffer, homogenized with a Teflon homogenizer and stored at −80° C. before use.
Binding assay was carried out under the following conditions. […] Measurement of non-specific binding was carried out using a well containing 1 μM unlabeled compound in place of the test sample. After the incubation was finished, a cell harvester (Packard) adapted to 96 wells and a filter unit (GF/C, Packard) were used for separation thereby capturing the membrane fraction on the filter. After the filter was sufficiently dried, Microcinti 0 (Packard) was added thereto, and using Top Count (Packard), the amount of the labeled material captured together with the membrane fraction on the filter was measured.

For the compound `CSCC[C@H](NC(=O)[C@@H]1CCCN1C(=O)CNC(=O)[C@H](CCCCN)NC(=O)[C@H](Cc1c[nH]cn1)NC(=O)[C@H](CO)NC(=O)[C@H](CC(C)C)NC(=O)[C@H](CCCNC(=N)N)NC(=O)[C@@H]1CCCN1C(=O)[C@H](CCCNC(=N)N)NC(=O)[C@H](Cc1ccccc1)NC(=O)[C@H](CCCNC(=N)N)NC(=O)[C@@H](N)CCCNC(=N)N)C(=O)N1CCC[C@H]1C(=O)N[C@@H](Cc1ccccc1)C(=O)O` [Compound in Ex. 33], the EC50 in test [1] came to 1.1 nM. Besides, the IC50 in test [2] worked out at 0.37 nM.
For `CSCC[C@H](NC(=O)[C@@H]1CCCN1C(=O)CNC(=O)[C@H](CCCCN)NC(=O)[C@H](Cc1c[nH]cn1)NC(=O)[C@H](CO)NC(=O)[C@H](CC(C)C)NC(=O)[C@H](CCCNC(=N)N)NC(=O)[C@@H]1CCCN1C(=O)[C@@H](N)CCCNC(=N)N)C(=O)N[C@@H](CC1CCCCC1)C(=O)O` [Compound in Ex. 36] (H-RPRLSHKGPM[Cha]-OH; N-terminus and C-terminus assumed) the same measures were 0.22 nM and 0.51 nM.
With `CC(C)C[C@H](NC(=O)[C@H](CCCNC(=N)N)NC(=O)[C@@H]1CCCN1C(=O)[C@@H](N)CCCNC(=N)N)C(=O)N[C@@H](Cc1ccccc1)C(=O)N[C@@H](Cc1c[nH]cn1)C(=O)N[C@@H](CCCCN)C(=O)NCC(=O)N1CCC[C@H]1C(=O)N[C@@H](CC1CCCCC1)C(=O)N[C@@H](Cc1ccc(Cl)cc1)C(=O)O` [Compound in Ex. 37] (H-RPRLFHKGP[Cha][Phe(4-Cl)]-OH; N-terminus and C-terminus assumed), in test [1], the EC50 came out at 0.43 nM. Further, in test [2], the IC50 amounted to 0.54 nM.
Regarding `CSCC[C@H](NC(=O)[C@@H]1CCCN1C(=O)CNC(=O)[C@H](CCCCN)NC(=O)[C@H](CC(C)C)NC(=O)[C@H](CO)NC(=O)[C@H](CC(C)C)NC(=O)[C@H](CCCNC(=N)N)NC(=O)[C@@H]1CCCN1C(=O)[C@H](CCCNC(=N)N)NC(=O)[C@@H]1CCC(=O)N1)C(=O)N1CCC[C@H]1C(=O)N[C@@H](Cc1ccccc1)C(=O)O` [Compound in Ex. 38], the 50% effective concentration (EC50) in test [1] stood at 0.16 nM. In test [2], the IC50 is 0.59 nM.
The like results for `CSCC[C@H](NC(=O)[C@@H]1CCCN1C(=O)CNC(=O)[C@H](CCCCN)NC(=O)[C@H](Cc1c[nH]cn1)NC(=O)[C@H](CO)NC(=O)[C@H](CC(C)C)NC(=O)[C@H](CCCNC(=N)N)NC(=O)[C@@H]1CCCN1C(=O)[C@@H](N)CCCNC(=N)N)C(=O)N[C@@H](Cc1ccc2ccccc2c1)C(=O)O` [Compound in Ex. 40] (H-RPRLSHKGPM[2Nal]-OH) were, in that order, 0.37 nM and 0.61 nM.
Take `CSCC[C@H](NC(=O)[C@@H]1CCCN1C(=O)CNC(=O)[C@H](CCCNC(=N)N)NC(=O)[C@H](CCCNC(=N)N)NC(=O)[C@H](Cc1ccccc1)NC(=O)[C@H](CC(C)C)NC(=O)[C@H](CCCNC(=N)N)NC(=O)[C@@H]1CCCN1C(=O)[C@H](CCCNC(=N)N)NC(=O)[C@@H]1CCC(=O)N1)C(=O)N1CCC[C@H]1C(=O)N[C@@H](Cc1ccccc1)C(=O)O` [Compound in Ex. 42] ([pGlu]RPRLFRRGPMPF-OH): in test [1], the EC50 amounted to 0.15 nM. Besides, the IC50 in test [2] amounted to 0.81 nM.
The like results for `CSCC[C@H](NC(=O)[C@@H]1CCCN1C(=O)CNC(=O)[C@H](CCCCN)NC(=O)[C@H](Cc1c[nH]cn1)NC(=O)[C@H](CO)NC(=O)[C@H](CC(C)C)NC(=O)[C@H](CCCNC(=N)N)NC(=O)[C@@H]1CCCN1C(=O)[C@@H](N)CCCNC(=N)N)C(=O)N1CCC[C@H]1C(=O)N[C@@H](CC1CCCCC1)C(=O)O` [Compound in Ex. 49] were, in that order, 0.71 nM and 3.5 nM.
The like results for `CC(C)C[C@H](NC(=O)[C@H](CCCNC(=N)N)NC(=O)[C@@H]1CCCN1C(=O)[C@H](CCCNC(=N)N)NC(=O)[C@H](CCC(N)=O)NC(=O)[C@H](CCCNC(=N)N)NC(=O)[C@@H](N)CCCNC(=N)N)C(=O)N[C@@H](CO)C(=O)N[C@@H](C)C(=O)N[C@@H](CCCNC(=N)N)C(=O)NCC(=O)N(C)C` [Compound in Ex. 51] (H-RRQRPRLSARG-NMe2) were, in that order, 0.49 nM and 0.16 nM.
The like results for `CC(C)C[C@H](NC(=O)[C@H](CCCNC(=N)N)NC(=O)[C@@H]1CCCN1C(=O)[C@H](CCCNC(=N)N)NC(=O)[C@H](CCC(N)=O)NC(=O)[C@H](CCCNC(=N)N)NC(=O)[C@@H](N)CCCNC(=N)N)C(=O)N[C@@H](CO)C(=O)N[C@@H](C)C(=O)N[C@@H](CCCNC(=N)N)C(=O)NCC(=O)N1CCOCC1` [Compound in Ex. 52] (H-RRQRPRLSARG-Morpholide; N-terminus assumed) were, in that order, 1.2 nM and 0.26 nM.
With `CC(C)C[C@H](NC(=O)[C@H](CCCNC(=N)N)NC(=O)[C@@H]1CCCN1C(=O)[C@@H](N)CCCNC(=N)N)C(=O)N[C@@H](CO)C(=O)N[C@@H](C)C(=O)N[C@@H](CCCNC(=N)N)C(=O)NCC(=O)N1CCC[C@H]1C(=O)N[C@@H](C)C(=O)N1CCC[C@H]1C(=O)N[C@@H](Cc1ccc(Cl)cc1)C(=O)O` [Compound in Ex. 53] (H-RPRLSARGPAP[Phe(4-Cl)]-OH; N-terminus and C-terminus assumed), in test [1], the EC50 is 0.37 nM. Further, the IC50 in test [2] was 0.064 nM.
The like results for `CSCC[C@H](NC(=O)CNC(=O)CNC(=O)[C@H](CCCNC(=N)N)NC(=O)[C@H](C)NC(=O)[C@H](CO)NC(=O)[C@H](CC(C)C)NC(=O)[C@H](CCCNC(=N)N)NC(=O)[C@@H]1CCCN1C(=O)[C@@H](N)CCCNC(=N)N)C(=O)N1CCC[C@H]1C(=O)N[C@@H](Cc1ccc(Cl)cc1)C(=O)O` [Compound in Ex. 54] (H-RPRLSARGGMP[Phe(4-Cl)]-OH; N-terminus and C-terminus assumed) were, in that order, 0.19 nM and 0.29 nM.
For `CSCC[C@H](NC(=O)[C@H](C)N(C)C(=O)CNC(=O)[C@H](CCCNC(=N)N)NC(=O)[C@H](C)NC(=O)[C@H](CO)NC(=O)[C@H](CC(C)C)NC(=O)[C@H](CCCNC(=N)N)NC(=O)[C@@H]1CCCN1C(=O)[C@@H](N)CCCNC(=N)N)C(=O)N1CCC[C@H]1C(=O)N[C@@H](Cc1ccc(Cl)cc1)C(=O)O` [Compound in Ex. 55] (H-RPRLSARG[NMeA]MP[Phe(4-Cl)]-OH; N-terminus and C-terminus assumed) the same measures were 0.27 nM and 0.09 nM.
As to `CC(C)C[C@H](NC(=O)[C@H](CCCNC(=N)N)NC(=O)[C@@H]1CCCN1C(=O)[C@@H](N)CCCNC(=N)N)C(=O)N[C@@H](CO)C(=O)N[C@@H](Cc1c[nH]cn1)C(=O)N[C@@H](C)C(=O)NCC(=O)N1CCC[C@H]1C(=O)N[C@@H](CC1CCCCC1)C(=O)N1CCC[C@H]1C(=O)N[C@@H](Cc1ccc(Cl)cc1)C(=O)O` [Compound in Ex. 56] (H-RPRLSHAGP[Cha]P[Phe(4-Cl)]-OH; N-terminus and C-terminus assumed), the EC50 in test [1] came out at 0.58 nM. Moreover, the IC50 in test [2] was determined as 0.22 nM.
As to `C[C@H](NC(=O)[C@H](CCCNC(=N)N)NC(=O)[C@@H]1CCCN1C(=O)[C@@H](N)CCCNC(=N)N)C(=O)N[C@@H](CO)C(=O)N[C@@H](Cc1c[nH]cn1)C(=O)N[C@@H](CCCCN)C(=O)NCC(=O)N1CCC[C@H]1C(=O)N[C@@H](CC1CCCCC1)C(=O)N1CCC[C@H]1C(=O)N[C@@H](Cc1ccc(Cl)cc1)C(=O)O` [Compound in Ex. 57] (H-RPRASHKGP[Cha]P[Phe(4-Cl)]-OH; N-terminus and C-terminus assumed), the concentration for a half-maximal effect (EC50) in test [1] was 0.52 nM. In addition, the IC50 in test [2] came to 0.17 nM.
